The results in this text go back to patent US20160222056A1, “SUBSTITUTED PHENYLALANINE DERIVATIVES” (BAYER PHARMA AKTIENGESELLSCHAFT, priority 2013, published 2016).

The target in one assay is T1, human factor XIa (Homo sapiens, UniProt P03951).
T1 construct: purchased Kordia
The experiment in a line: Measurement of FXIa inhibition (fluorogenic peptide substrate). It is filed as biochemical. On the procedure: To determine the factor XIa inhibition of the substances according to the invention, a biochemical test system is used which utilizes the reaction of a peptidic factor XIa substrate to determine the enzymatic activity of human factor XIa. Here, factor XIa cleaves from the peptic factor XIa substrate the C-terminal aminomethylcoumarin (AMC), the fluorescence of which is measured. The determinations are carried out in microtitre plates.
Test substances are dissolved in dimethyl sulphoxide and serially diluted in dimethyl sulphoxide (3000 μM to 0.0078 μM; resulting final concentrations in the test: 50 μM to 0.00013 μM). In each case 1 μl of the diluted substance solutions are placed into the wells of white microtitre plates from Greiner (384 wells). Subsequently, the following are added successively: 20 μl of assay buffer (50 mmol/1 Tris buffer pH 7.4; 100 mmol/1 sodium chloride; 5 mmol/1 calcium chloride; 0.1% bovine serum albumin) and 20 μl of factor XIa from Kordia (0.45 nM in assay buffer). After 15 min of incubation, the enzyme reaction is started by addition of 20 μl of the factor XIa substrate Boc-Glu(OBzl)-Ala-Arg-AMC dissolved in assay buffer (10 μM in assay buffer) from Bachem, the mixture is incubated at room temperature (22° C.) for 30 min and fluorescence is then measured (excitation: 360 nm, emission: 460 nm). The measured emissions of the test batches with test substance are compared to those of control batches without test substance (only dimethyl sulphoxide instead of test substance in dimethyl sulphoxide), and the IC50 values are calculated from the concentration/activity relationships.

A further assay relates to human and animal plasma. Description: Anticoagulatory activity: activated partial thromboplastin time (aPTT) in plasma. The assay is classed as biochemical. To be noted: in vitro in plasma, C.K. Prest kit, 37° C. for 3 minutes; plasma species of Table B not stated. The protocol:
The anticoagulatory activity of the test substances is determined in vitro in human and animal plasma (for example mouse, rat, rabbit, pig and dog plasma). To this end, blood is drawn off in a mixing ratio of sodium citrate/blood of 1:9 using a 0.11 molar sodium citrate solution as receiver. Immediately after the blood has been drawn off, it is mixed thoroughly and centrifuged at about 4000 g for 15 minutes. The supernatant is pipetted off.
The activated partial thromboplastin time (aPTT) is determined in the presence of varying concentrations of test substance or the corresponding solvent using a commercial test kit (C.K. Prest from Diagnostica Stago). The test compounds are incubated with the plasma and the PTT reagent (cephalin, kaolin) at 37° C. for 3 minutes. Coagulation is then started by addition of 25 mM aqueous calcium chloride, and the time when coagulation occurs is determined. The concentration of test substance which brings about a 1.5-fold extension of the aPTT is determined.

The mark [1] stands for this setting: human factor XIa from Kordia, substrate Boc-Glu(OBzl)-Ala-Arg-AMC, 30 min at 22° C., read-out: IC50 (FXIa inhibition).

What is called IC50 is the concentration needed to halve the response being measured.

Counter-ions that a name gives are not always drawn. Like-named read-outs stand apart in the source and are kept apart here.

T1 sequence (P03951 388-625 limits assumed): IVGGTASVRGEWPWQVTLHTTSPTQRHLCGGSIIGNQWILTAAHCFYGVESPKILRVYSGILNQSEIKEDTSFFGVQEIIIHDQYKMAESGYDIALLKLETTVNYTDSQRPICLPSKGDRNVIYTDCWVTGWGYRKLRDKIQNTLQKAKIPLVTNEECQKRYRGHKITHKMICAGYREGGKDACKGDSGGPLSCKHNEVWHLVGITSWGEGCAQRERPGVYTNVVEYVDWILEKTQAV
T1 sequence (P03951 19-387 partner limits assumed): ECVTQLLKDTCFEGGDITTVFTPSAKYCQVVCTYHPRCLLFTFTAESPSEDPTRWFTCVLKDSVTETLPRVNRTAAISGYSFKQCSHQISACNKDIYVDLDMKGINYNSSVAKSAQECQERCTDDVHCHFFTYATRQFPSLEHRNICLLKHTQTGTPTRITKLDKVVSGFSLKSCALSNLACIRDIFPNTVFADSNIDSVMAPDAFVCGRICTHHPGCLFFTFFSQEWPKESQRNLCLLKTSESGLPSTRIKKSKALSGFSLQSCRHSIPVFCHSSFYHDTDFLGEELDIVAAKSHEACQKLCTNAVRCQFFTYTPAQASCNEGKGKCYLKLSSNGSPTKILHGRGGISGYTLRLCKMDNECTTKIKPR

Take `Cc1nc(C(=O)NC2CCC(N(C)C)CC2)ccc1-c1ccc(C[C@H](NC(=O)[C@H]2CC[C@H](CN)CC2)C(=O)Nc2ccc(-c3nn[nH]n3)cc2)cc1` (stereo partly drawn) [Example 2, N-alpha-{[trans-4-(Aminomethyl)cyclohexyl]carbonyl}-4-(6-{[4-(dimethylamino)cyclohexyl]-carbamoyl}-2-methylpyridin-3-yl)-N-[4-(2H-tetrazol-5-yl)phenyl]-L-phenylalaninamide hydrochloride]: at human factor XIa (setting [1]), the IC50 amounted to 1.9 nM. For the same molecule, the “aPTT (concentration of test substance which brings about a 1.5-fold extension of the aPTT)” value in the assay with human and animal plasma turned out to be 0.08 µmol/L.
Taken in the same sequence, the figures for `Cc1cc(C(=O)NC2CC3COCC(C2)N3)ncc1-c1ccc(C[C@H](NC(=O)C2CCC(CN)CC2)C(=O)Nc2ccc(-c3nnn[nH]3)cc2)cc1` (stereo partly drawn) [Example 11, N-alpha-{[trans-4-(Aminomethyl)cyclohexyl]carbonyl}-4-[4-methyl-6-(3-oxa-9-azabicyclo[3.3.1]non-7-ylcarbamoyl)pyridin-3-yl]-N-[4-(1H-tetrazol-5-yl)phenyl]-L-phenylalaninamide hydrochloride] were 5.2 nM and 0.07 µmol/L.
As to `Cc1nc(C(=O)N[C@@H]2CCN[C@H](C)C2)ccc1-c1ccc(C[C@H](NC(=O)[C@H]2CC[C@H](CN)CC2)C(=O)Nc2ccc(-c3nn[nH]n3)cc2)cc1` [Example 18, N-alpha-{[trans-4-(Aminomethyl)cyclohexyl]carbonyl}-4-(2-methyl-6-{[(2R,4R)-2-methylpiperidin-4-yl]carbamoyl}pyridin-3-yl)-N-[4-(2H-tetrazol-5-yl)phenyl]-L-phenylalaninamide hydrochloride], 4.5 nM corresponded to half-maximal inhibition at human factor XIa (IC50). The “aPTT (concentration of test substance which brings about a 1.5-fold extension of the aPTT)” value with human and animal plasma was determined as 0.12 µmol/L.
For the molecule `Cc1nc(C(=O)N[C@H]2CCNC2)ccc1-c1ccc(C[C@H](NC(=O)[C@H]2CC[C@H](CN)CC2)C(=O)Nc2ccc(-c3nn[nH]n3)cc2)cc1` [Example 15, N-alpha-{[trans-4-(Aminomethyl)cyclohexyl]carbonyl}-4-{2-methyl-6-[(3S)-pyrrolidin-3-ylcarbamoyl]pyridin-3-yl}-N-[4-(2H-tetrazol-5-yl)phenyl]-L-phenylalaninamide hydrochloride], at human factor XIa (setting [1]), the IC50 was determined as 3.2 nM. Moreover, the “aPTT (concentration of test substance which brings about a 1.5-fold extension of the aPTT)” value with human and animal plasma is 0.1 µmol/L.
Taken in the same sequence, the figures for `Cc1nc(C(=O)N[C@H]2CCCNC2=O)ccc1-c1ccc(C[C@H](NC(=O)[C@H]2CC[C@H](CN)CC2)C(=O)Nc2ccc(-c3nn[nH]n3)cc2)cc1` [Example 4, N-alpha-{[trans-4-(Aminomethyl)cyclohexyl]carbonyl}-4-(2-methyl-6-{[(3S)-2-oxopiperidin-3-yl]carbamoyl}pyridin-3-yl)-N-[4-(2H-tetrazol-5-yl)phenyl]-L-phenylalaninamide hydrochloride] were 1.3 nM and 0.2 µmol/L.
Take `Cc1cc(C(=O)NC2CCNCC2)ncc1-c1ccc(C[C@H](NC(=O)[C@H]2CC[C@H](CN)CC2)C(=O)Nc2ccc(-c3nnn[nH]3)cc2)cc1` [Example 5, N-alpha-{[trans-4-(Aminomethyl)cyclohexyl]carbonyl}-4-[4-methyl-6-(piperidin-4-ylcarbamoyl)pyridin-3-yl]-N-[4-(1H-tetrazol-5-yl)phenyl]-L-phenylalaninamide hydrochloride]: the IC50 on human factor XIa (setting [1]) was 1.9 nM. Also, in the assay with human and animal plasma, the “aPTT (concentration of test substance which brings about a 1.5-fold extension of the aPTT)” value was 0.04 µmol/L.
For `Cc1nc(C(=O)NC2C3CNCC32)ccc1-c1ccc(C[C@H](NC(=O)[C@H]2CC[C@H](CN)CC2)C(=O)Nc2ccc(-c3nn[nH]n3)cc2)cc1` (stereo partly drawn) [Example 16, N-alpha-{[trans-4-(Aminomethyl)cyclohexyl]carbonyl}-4-[6-(3-azabicyclo[3.1.0]hex-6-ylcarbamoyl)-2-methylpyridin-3-yl]-N-[4-(2H-tetrazol-5-yl)phenyl]-L-phenylalaninamide hydrochloride] the same measures were 8.1 nM and 0.11 µmol/L.
Taken in the same sequence, the figures for `CCN(CC)CCCNC(=O)c1cc(C)c(-c2ccc(C[C@H](NC(=O)[C@H]3CC[C@H](CN)CC3)C(=O)Nc3ccc(-c4nnn[nH]4)cc3)cc2)cn1` [Example 9, N-alpha-{[trans-4-(Aminomethyl)cyclohexyl]carbonyl}-4-(6-{[3-(diethylamino)propyl]-carbamoyl}-4-methylpyridin-3-yl)-N-[4-(1H-tetrazol-5-yl)phenyl]-L-phenylalaninamide hydrochloride] were 5.2 nM and 0.05 µmol/L.
Consider `Cc1cc(C(=O)NCCCN(C)C)ncc1-c1ccc(C[C@H](NC(=O)[C@H]2CC[C@H](CN)CC2)C(=O)Nc2ccc(-c3nnn[nH]3)cc2)cc1` [Example 12, N-alpha-{[trans-4-(Aminomethyl)cyclohexyl]carbonyl}-4-(6-{[3-(dimethylamino)propyl]-carbamoyl}-4-methylpyridin-3-yl)-N-[4-(1H-tetrazol-5-yl)phenyl]-L-phenylalaninamide hydrochloride], for which the IC50 on human factor XIa (setting [1]) was 4.8 nM. The “aPTT (concentration of test substance which brings about a 1.5-fold extension of the aPTT)” value in the assay with human and animal plasma worked out at 0.08 µmol/L.
Consider `Cc1nc(C(=O)N[C@@H]2CCNC2)ccc1-c1ccc(C[C@H](NC(=O)[C@H]2CC[C@H](CN)CC2)C(=O)Nc2ccc(-c3nn[nH]n3)cc2)cc1` [Example 17, N-alpha-{[trans-4-(Aminomethyl)cyclohexyl]carbonyl}-4-{2-methyl-6-[(3R)-pyrrolidin-3-ylcarbamoyl]pyridin-3-yl}-N-[4-(2H-tetrazol-5-yl)phenyl]-L-phenylalaninamide hydrochloride], for which the IC50 at human factor XIa (setting [1]) amounted to 5 nM. Besides, the “aPTT (concentration of test substance which brings about a 1.5-fold extension of the aPTT)” value with human and animal plasma is 0.12 µmol/L.
Taken in the same sequence, the figures for `Cc1cc(C(=O)N2CCNC(C)C2)ncc1-c1ccc(C[C@H](NC(=O)[C@H]2CC[C@H](CN)CC2)C(=O)Nc2ccc(-c3nnn[nH]3)cc2)cc1` (stereo partly drawn) [Example 25, N-alpha-{[trans-4-(Aminomethyl)cyclohexyl]carbonyl}-4-{4-methyl-6-[(3-methylpiperazin-1-yl)carbonyl]pyridin-3-yl}-N-[4-(1H-tetrazol-5-yl)phenyl]-L-phenylalaninamide hydrochloride] were 4.2 nM and 0.18 µmol/L.
As to `Cc1cc(C(=O)NC2CCNCC2F)ncc1-c1ccc(C[C@H](NC(=O)C2CCC(CN)CC2)C(=O)Nc2ccc(-c3nnn[nH]3)cc2)cc1` (stereo partly drawn) [Example 8, N-alpha-{[trans-4-(Aminomethyl)cyclohexyl]carbonyl}-4-{6-[(3-fluoropiperidin-4-yl)carbamoyl]-4-methylpyridin-3-yl}-N-[4-(1H-tetrazol-5-yl)phenyl]-L-phenylalaninamide hydrochloride], on human factor XIa (setting [1]), the half-inhibitory concentration (IC50) came out at 2.2 nM. The “aPTT (concentration of test substance which brings about a 1.5-fold extension of the aPTT)” value in the assay on human and animal plasma is 0.05 µmol/L.
For `Cc1nc(C(=O)N[C@@H]2CCN(C)C2)ccc1-c1ccc(C[C@H](NC(=O)[C@H]2CC[C@H](CN)CC2)C(=O)Nc2ccc(-c3nn[nH]n3)cc2)cc1` [Example 19, N-alpha-{[trans-4-(Aminomethyl)cyclohexyl]carbonyl}-4-(2-methyl-6-{[(3R)-1-methylpyrrolidin-3-yl]carbamoyl}pyridin-3-yl)-N-[4-(2H-tetrazol-5-yl)phenyl]-L-phenylalaninamide hydrochloride], on human factor XIa (setting [1]), the IC50 is 4.5 nM. In addition, in the assay on human and animal plasma, the “aPTT (concentration of test substance which brings about a 1.5-fold extension of the aPTT)” value stood at 0.12 µmol/L.
For `CCN(CC)CCNC(=O)c1ccc(-c2ccc(C[C@H](NC(=O)[C@H]3CC[C@H](CN)CC3)C(=O)Nc3ccc(-c4nn[nH]n4)cc3)cc2)c(C)n1` [Example 3, N-alpha-{[trans-4-(Aminomethyl)cyclohexyl]carbonyl}-4-(6-{[2-(diethylamino)ethyl]carbamoyl}-2-methylpyridin-3-yl)-N-[4-(2H-tetrazol-5-yl)phenyl]-L-phenylalaninamide hydrochloride] the same measures were 5.6 nM and 0.16 µmol/L.
